Measured values taken from patent US9492365B2, “Use of caftaric acid and derivatives in food supplement for regulating skin pigmentation” (Nestec S.A., priority 2010, dated 2016).

Key:
B16 murine melanocytes = assay: Production of melanin by B16 murine melanocyte cell line; type: cell-based; conditions: B16 melanocytes treated for 72 hours, presence or absence of NDP-MSH; relative to control (FIG. 1); Kojic acid at 400 μg/mL
Experimental: In order to evaluate the potential beneficial effect of ingredients towards skin de- or pro-pigmentation we used 2D culture of murine melanocytes (B16) and we performed 2 tests: 1—assessment of melanin production and 2—assessment of tyrosinase production. 1. The cell culture conditions. • B16 cells were cultured in DMEM 1 g/L glucose without phenol red supplemented with 10% foetal calf serum, in a humidified chamber at 37° C. and containing 5% CO2. 2. The production of melanin by B16 murine melanocyte cell line. • Cells were incubated with the selected ingredients or the test references (Kojic acid at 400 μg/mL) for 72 hours, in the presence or absence of NDP-MSH an analog of MSH. The total quantity of melanin (extracellular and intracellular) was evaluated by measurement of the optical density at 405 nm of each sample against melanin standards in presence or in absence of NDP-MSH.

HDF = assay: Highest non cytotoxic concentration on HDF; type: cell-based; conditions: HDF cells
HPEK = assay: Highest non cytotoxic concentration on HPEK; type: cell-based, human; conditions: HPEK cells
tyrosinase = assay: Production of tyrosinase by B16 murine melanocyte cell line (immunolabeling); type: cell-based; conditions: B16 melanocytes, 48 hours, immunolabeling (FIG. 2)
Experimental: In order to evaluate the potential beneficial effect of ingredients towards skin de- or pro-pigmentation we used 2D culture of murine melanocytes (B16) and we performed 2 tests: 1—assessment of melanin production and 2—assessment of tyrosinase production. 1. The cell culture conditions. • B16 cells were cultured in DMEM 1 g/L glucose without phenol red supplemented with 10% foetal calf serum, in a humidified chamber at 37° C. and containing 5% CO2. 3. The production of tyrosinase by B16 murine melanocyte cell line. • Cells were incubated with the selected ingredients or the test references (Kojic acid at 400 μg/mL) for 48 hours. The production of tyrosinase was evaluated by immunolabeling.

filaggrin = assay: Synthesis of filaggrin by human epidermal keratinocytes (immunolabeling); type: cell-based; conditions: human primary epidermal keratinocytes, 144 hours
Experimental: The potential beneficial effect of the Extracts of Example 1 towards skin barrier function and skin hydration was evaluated by using 2D culture of human primary epidermal keratinocytes and we assessed their synthesis of filaggrin. Human epidermal keratinocytes were cultured in control keratinocytes-SFM medium, in a humidified chamber at 37° C. and containing 5% CO2. Cells were incubated with the selected ingredients or the test references (CaCl2 at 1.5 mM) for 144 hours. The production of filaggrin by was evaluated by immunolabeling.

Row | SMILES | Melanin production (B16 murine melanocytes) | Highest non cytotoxic conc. on HDF (HDF) | Highest non cytotoxic conc. on HPEK (HPEK) | Production of tyrosinase (tyrosinase) | Filaggrin production (filaggrin)
1 | O=c1cc(CO)occ1O [Kojic acid, reference compound] | decrease in melanin production | – | – | – | –
2 | O=C(/C=C/c1ccc(O)c(O)c1)O[C@@H](C(=O)O)[C@@H](O)C(=O)O [Caftaric acid] | decreased the production of melanin in vitro, more efficiently than the tested chicory extract MS-70 | 1 mM | 1 mM | decreased by these ingredients but to a limited extent | increased filaggrin production
